Patent US10597388B2, “Pyridazinone herbicides” (FMC CORPORATION, priority 2014, dated 2020)

Columns and labels:
Experiment in all cases: Test C greenhouse herbicide test, pre- and postemergence
Type in all cases: in vivo
[1] = system: foxtail, giant (giant foxtail, Setaria faberii)
Method in brief: (§1)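 Preemergence: seeds sown in a loam soil–sand blend and sprayed with test chemicals in a non-phytotoxic solvent mixture containing surfactant. Postemergence: plants grown in peat-based medium and treated at 2 to 18 cm (1- to 4-leaf stage). After 13 to 15 d in a greenhouse, injury was visually rated 0–100 against controls.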

[2] = system: pigweed (Amaranthus retroflexus)
Method in brief: as §1

[3] = system: barnyardgrass (Echinochloa crus-galli)
Method in brief: as §1

[4] = system: nutsedge, yellow (yellow nutsedge, Cyperus esculentus)
Method in brief: as §1

[5] = system: wheat (winter wheat, Triticum aestivum)
Method in brief: as §1

[6] = system: corn (Zea mays)
Method in brief: as §1

[7] = system: ryegrass, Italian (Italian ryegrass, Lolium multiflorum)
Method in brief: as §1

[8] = system: crabgrass, large (large crabgrass, Digitaria sanguinalis)
Method in brief: as §1

[9] = system: soybean (Glycine max)
Method in brief: as §1

[10] = system: blackgrass (Alopecurus myosuroides)
Method in brief: as §1

[11] = system: ragweed (common ragweed, Ambrosia elatior)
Method in brief: as §1

[12] = system: velvetleaf (Abutilon theophrasti)
Method in brief: as §1

[13] = system: lambsquarters (Chenopodium album)
Method in brief: as §1

[14] = system: galium (catchweed bedstraw, Galium aparine)
Method in brief: as §1

[15] = system: oilseed rape (Brassica napus)
Method in brief: as §1

[16] = Postemergence, 31 g ai/ha, 0 to 100 scale (0 no effect, 100 complete control)
[17] = Postemergence, 125 g ai/ha, scale 0 to 100, 0 is no effect, 100 is complete control
[18] = Postemergence, 250 g ai/ha, scale 0 to 100, 0 no effect, 100 complete control, 13 to 15 d
[19] = postemergence, 62 g ai/ha, scale 0 to 100, 0 no effect, 100 complete control

For `CCC(=O)Oc1c(C)nn(C)c(=O)c1-c1c(C)ccc2ccccc12` [Compound 78], the “Foxtail, Giant plant response rating” value [1, 16] was 15, the “Plant response rating, Foxtail, Giant” value [1, 17] was 20 and the “Plant response rating, Foxtail, Giant” value [1, 18] was 25. The “Foxtail, Giant plant response rating” value [1, 19] was 5, the “Pigweed plant response rating” value [2, 16] was 50 and the “Plant response rating, Pigweed” value [2, 17] was 75. The “Plant response rating, Pigweed” value [2, 18] was 80, the “Pigweed plant response rating” value [2, 19] was 60 and the “Barnyardgrass plant response rating” value [3, 16] was 15. The “Plant response rating, Barnyardgrass” value [3, 17] was 30, the “Plant response rating, Barnyardgrass” value [3, 18] was 25 and the “Barnyardgrass plant response rating” value [3, 19] was 25. For the same compound, the “Nutsedge, Yellow plant response rating” value [4, 16] was 0, the “Plant response rating, Nutsedge, Yellow” value [4, 17] was 35 and the “Plant response rating, Nutsedge, Yellow” value [4, 18] was 60. For the same compound, the “Nutsedge, Yellow plant response rating” value [4, 19] was 25, the “Wheat plant response rating” value [5, 16] was 0 and the “Plant response rating, Wheat” value [5, 17] was 5. For the same compound, the “Plant response rating, Wheat” value [5, 18] was 10, the “Wheat plant response rating” value [5, 19] was 5 and the “Corn plant response rating” value [6, 16] was 0. The “Plant response rating, Corn” value [6, 17] was 10, the “Plant response rating, Corn” value [6, 18] was 0 and the “Corn plant response rating” value [6, 19] was 0. For the same compound, the “Ryegrass, Italian plant response rating” value [7, 16] was 55, the “Plant response rating, Ryegrass, Italian” value [7, 17] was 85 and the “Plant response rating, Ryegrass, Italian” value [7, 18] was 90. The “Ryegrass, Italian plant response rating” value [7, 19] was 65, the “Crabgrass, Large plant response rating” value [8, 16] was 5 and the “Plant response rating, Crabgrass, Large” value [8, 17] was 10. The “Plant response rating, Crabgrass, Large” value [8, 18] was 10, the “Crabgrass, Large plant response rating” value [8, 19] was 5 and the “Soybean plant response rating” value [9, 16] was 0. The “Plant response rating, Soybean” value [9, 17] was 5, the “Plant response rating, Soybean” value [9, 18] was 20 and the “Soybean plant response rating” value [9, 19] was 0. The “Blackgrass plant response rating” value [10, 16] was 0, the “Plant response rating, Blackgrass” value [10, 17] was 5 and the “Plant response rating, Blackgrass” value [10, 18] was 30. The “Blackgrass plant response rating” value [10, 19] was 5, the “Ragweed plant response rating” value [11, 16] was 10 and the “Plant response rating, Ragweed” value [11, 17] was 60. For the same compound, the “Plant response rating, Ragweed” value [11, 18] was 75, the “Ragweed plant response rating” value [11, 19] was 20 and the “Velvetleaf plant response rating” value [12, 16] was 0. The “Plant response rating, Velvetleaf” value [12, 17] was 35, the “Plant response rating, Velvetleaf” value [12, 18] was 60 and the “Velvetleaf plant response rating” value [12, 19] was 10. For the same compound, the “Lambsquarters plant response rating” value [13, 16] was 40, the “Plant response rating, Lambsquarters” value [13, 17] was 75 and the “Plant response rating, Lambsquarters” value [13, 18] was 100. The “Lambsquarters plant response rating” value [13, 19] was 70, the “Galium plant response rating” value [14, 16] was 70 and the “Plant response rating, Galium” value [14, 17] was 80. For the same compound, the “Plant response rating, Galium” value [14, 18] was 95, the “Galium plant response rating” value [14, 19] was 80 and the “Oilseed Rape plant response rating” value [15, 16] was 0. The “Plant response rating, Oilseed Rape” value [15, 17] was 0, the “Plant response rating, Oilseed Rape” value [15, 18] was 5 and the “Oilseed Rape plant response rating” value [15, 19] was 0.
